This is an account of results in US20150250175A1, “PESTICIDALLY ACTIVE MIXTURES COMPRISING ANTHRANILAMIDE COMPOUNDS” (BASF SE, priority 2012, published 2015).

The subject of assay [1] is tobacco budworm (Heliothis virescens). In words: Tobacco budworm (Heliothis virescens) control, insect diet with eggs, 96-well plates. Conditions: 5 days.
The subject of assay [2] is Mediterranean fruitfly (Ceratitis capitata). Put plainly: Mediterranean fruitfly (Ceratitis capitata) control, insect diet with eggs, 96-well plates. Conditions: 5 days.
Assay [3] relates to vetch aphid (Megoura viciae). In words: Vetch aphid (Megoura viciae) control, broad bean leaf disks in 24-well microtiter plates. Format: in vivo. The settings on record: sprayed on leaf disks, aphid mortality and fecundity after 5 days. The source says: After application, the leaf disks were air-dried and 5-8 adult aphids placed on the leaf disks inside the microtiter plate wells. […] Aphid mortality and fecundity was then visually assessed.

For assay [4], the system named is green peach aphid (Myzus persicae). Put plainly: Green peach aphid (Myzus persicae) control, systemic, artificial diet under membrane, 96-well plates. Format: in vivo. Conditions: 3 days. The source says:
After application, 5-8 adult aphids were placed on the artificial membrane inside the microtiter plate wells. […] Aphid mortality and fecundity was then visually assessed.

Assay [5] relates to boll weevil (Anthonomus grandis). In words: Boll weevil (Anthonomus grandis) control, insect diet with eggs, 24-well plates. The settings on record: 5 days.
Setting [6] is: 0.08 + 0 ppm (mixing partner alone at 0.08 ppm).
Setting [7] is: 0 + 1 ppm (compound I alone at 1 ppm).
Where [8] appears, read: 0 + 0.2 ppm (compound I alone at 0.2 ppm).
The mark [9] stands for this setting: 0 + 5 ppm (compound I alone at 5 ppm).
Setting [10] is: 3.2 + 0 ppm (mixing partner alone at 3.2 ppm).
[11] abbreviates: 0.0016 + 0 ppm (mixing partner alone at 0.0016 ppm).

As to `CN/C(=N\[N+](=O)[O-])NCc1cnc(Cl)s1` [Clothianidin], the “Average (Control %)” value in assay [1] (setting [6]) and in assay [2] (1 + 0 ppm (mixing partner alone at 1 ppm)) was 0% in each case.

Consider `CCS(CC)=NC(=O)c1cc(Cl)cc(C)c1NC(=O)c1cc(C(F)(F)F)nn1-c1ncccc1Cl` [Compound I-11, 2-(3-chloro-2-pyridyl)-N-[2-methyl-4-chloro-6-[(diethyl-λ^4-sulfanylidene)carbamoyl]phenyl]-5-(trifluoromethyl)pyrazole-3-carboxamide], for which the “Average (Control %)” value is 0% in assay [3] (Spirotetramat + I-11 at 0 + 1 ppm (I-11 alone, 1 ppm)); 0% in assay [4] (setting [7]); 0% in assay [5] (setting [7]); 0% in assay [1] (setting [8]).

Regarding `CCS(CC)=NC(=O)c1cc(Cl)cc(Cl)c1NC(=O)c1cc(C(F)(F)F)nn1-c1ncccc1Cl` [Compound I-16, 2-(3-chloro-2-pyridyl)-N-[2,4-dichloro-6-[(diethyl-λ^4-sulfanylidene)carbamoyl]phenyl]-5-(trifluoromethyl)pyrazole-3-carboxamide], the “Average (Control %)” value in assay [4] (setting [7]) is 25%; in assay [1] (setting [7]) it was 0%; in assay [2] (setting [9]), 0%.

Turning to `Cc1cc(Cl)cc(C(=O)N=S(C(C)C)C(C)C)c1NC(=O)c1cc(C(F)(F)F)nn1-c1ncccc1Cl` [Compound I-21, 2-(3-chloro-2-pyridyl)-N-[2-methyl-4-chloro-6-[(bis-2-propyl-λ^4-sulfanylidene)carbamoyl]phenyl]-5-(trifluoromethyl)pyrazole-3-carboxamide], the “Average (Control %)” value in assay [5] (setting [9]) stood at 0%; in assay [1] (setting [8]), 0%; in assay [1] (setting [7]), 50%; in assay [2] (setting [9]) it was 0%.

`CC[S+]([O-])c1c(C#N)nn(-c2c(Cl)cc(C(F)(F)F)cc2Cl)c1N` (centres unmarked) [Ethiprol]: the “Average (Control %)” value in assay [5] (2 + 0 ppm (mixing partner alone at 2 ppm)) stood at 50%; in assay [1] (setting [6]) it was 0%; in assay [2] (10 + 0 ppm (mixing partner alone at 10 ppm)), 0%.

With `CCOC(=O)OC1=C(c2cc(C)ccc2C)C(=O)N[C@]12CC[C@@H](OC)CC2` [Spirotetramat, spirotetramat, reference compound], the “Average (Control %)” value is reported as 25% in assay [3] (Spirotetramat + I-11 at 80 + 0 ppm (Spirotetramat alone, 80 ppm)); 0% in assay [4] (setting [10]); 50% in assay [4] (80 + 0 ppm (mixing partner alone at 80 ppm)); 0% in assay [1] (setting [10]).

Turning to `N#C/N=C1\SCCN1Cc1ccc(Cl)nc1` [Thiacloprid], the “Average (Control %)” value in assay [4] (setting [11]) is 50%; in assay [5] (setting [11]) it was 0%.

For the compound Spinosad, the “Average (Control %)” value in assay [5] (setting [6]), in assay [1] (setting [6]), in assay [1] (0.4 + 0 ppm (mixing partner alone at 0.4 ppm)) and in assay [2] (setting [6]) was 0% each time.
